According to paper PMC6811774, “Potent, selective, and subunit‐dependent activation of TRPC5 channels by a xanthine derivative” (British Journal of Pharmacology, 2019):

Molecular target: T1, TRPC4-SYFP2 (TRPC4:C4 channels) (Homo sapiens, UniProt Q9UBN4)
T1 construct: expressed in transfected cells
T1 sequence (Q9UBN4 1-893 isoform Q9UBN4-2): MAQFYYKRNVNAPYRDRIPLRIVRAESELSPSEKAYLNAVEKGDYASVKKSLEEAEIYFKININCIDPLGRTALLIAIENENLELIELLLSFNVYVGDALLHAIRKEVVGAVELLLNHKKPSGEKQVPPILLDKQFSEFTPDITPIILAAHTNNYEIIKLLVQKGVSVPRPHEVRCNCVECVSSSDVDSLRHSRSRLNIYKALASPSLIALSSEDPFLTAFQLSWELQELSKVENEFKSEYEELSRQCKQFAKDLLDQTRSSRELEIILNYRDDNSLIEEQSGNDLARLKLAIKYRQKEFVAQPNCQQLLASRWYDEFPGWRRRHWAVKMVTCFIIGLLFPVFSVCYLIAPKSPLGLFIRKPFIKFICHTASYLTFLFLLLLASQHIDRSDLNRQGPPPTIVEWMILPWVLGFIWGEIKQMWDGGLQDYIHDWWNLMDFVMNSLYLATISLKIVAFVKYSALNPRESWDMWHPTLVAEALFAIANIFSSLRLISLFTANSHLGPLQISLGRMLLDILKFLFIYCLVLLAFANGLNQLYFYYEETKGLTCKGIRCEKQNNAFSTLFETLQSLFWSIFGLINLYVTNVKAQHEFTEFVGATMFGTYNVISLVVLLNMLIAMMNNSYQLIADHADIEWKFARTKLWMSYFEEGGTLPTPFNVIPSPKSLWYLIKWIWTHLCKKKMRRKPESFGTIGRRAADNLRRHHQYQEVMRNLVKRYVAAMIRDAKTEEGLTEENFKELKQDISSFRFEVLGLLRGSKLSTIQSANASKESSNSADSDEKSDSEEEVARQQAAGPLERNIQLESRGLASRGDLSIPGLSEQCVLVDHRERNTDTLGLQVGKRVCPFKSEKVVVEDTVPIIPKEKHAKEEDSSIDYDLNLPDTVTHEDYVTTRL
Experiment: [Ca2+]i measurement in (Tet+) HEK T-REx cells expressing hTRPC4-SYFP2
Format: cell-based
Source text: To facilitate cloning of TRPC5‐SYFP2 and TRPC4‐SYFP2, a pcDNA™4/TO expression vector (ThermoFisher Scientific, Waltham, MA, USA), into which a four amino acid linker (ASAS) flanked by AgeI and SacII restriction sites had been introduced between EcoRI and XhoI restriction sites, was used (Naylor et al., 2016). Human TRPC4β was inserted between BamHI and AgeI restriction sites as described previously (Ludlow et al., 2017). Human TRPC5 (forward primer: 5′ GCTTGGTACCGCCACCATG 3′ and reverse primer: 5′ […] 3′) was inserted upstream of the linker between KpnI and AgeI restriction sites using hTRPC5/pcDNA™4/TO (Zeng et al., 2004) as a PCR template. Both constructs contained an N‐terminal Kozak sequence. SYFP2 was inserted downstream of the linker between SacII and XbaI restriction sites using pSYFP2‐C1 as a PCR template (forward primer, 5′ […] 3′; reverse primer, 5′ […] 3′). pSYFP2‐C1 was a gift from Dorus Gadella (Addgene plasmid #22878; http://n2t.net/addgene:22878; RRID:Addgene_22878; Kremers, Goedhart, van Munster, & Gadella, 2006). Plasmids were sequenced to verify identity.
HEK T‐REx™ cell line was transfected with TRPC5‐SYFP2 or TRPC4‐SYFP2 using FuGENE® HD transfection reagent. After 48 hr, cells were put under antibiotic selection using 400 μg·ml^−1 zeocin and 10 μg·ml^−1 blasticidin S (Invivogen, San Diego, California, USA). Medium changes were carried out regularly to remove dead cells. HEK T‐REx cells expressing tetracycline‐inducible human TRPC5, TRPC4–C1, and TRPC5–C1 were created as described previously (Akbulut et al., 2015; Ludlow et al., 2017; Rubaiy, Ludlow, Henrot, et al., 2017). TRPC5–C1 and TRPC4–C1 concatemers allow expression of functional channels with defined 2:2 stoichiometry that display ion permeability and current–voltage relationships distinct from those of homomeric TRPC4:C4 or TRPC5:C5 channels and consistent with those obtained upon co‐expression of TRPC1 with TRPC4 or TRPC5 (Ludlow et al., 2017; Rubaiy, Ludlow, Bon, & Beech, 2017; Rubaiy, Ludlow, Henrot, et al., 2017). […]

For `Cn1c(=O)n(CCCO)c(=O)c2c1nc(Oc1ccc(Cl)c(OC(F)(F)F)c1)n2Cc1ccc(Cl)cc1` [AM237], the “Hill slope, inhibition of EA response” value was −0.78, the “Effect of pretreatment on basal [Ca2+]i” value (0.3–300 nM AM237) was “did not affect” and the “Activation upon acute administration ([Ca2+]i)” value (3-300 nM AM237) was “lack of activation”.
